The subject of this experiment is NL-RLuc virus. Nature of the experiment: Inhibition of HIV replication (NL-RLuc virus in MT-2 cells, luciferase readout). In kind it is cell-based. The note with it: Human immunodeficiency virus 1, MT2, 120 h. The source says: Inhibition of HIV replication: A recombinant NL-RLuc proviral clone was constructed in which a section of the nef gene from NL4-3 was replaced with the Renilla Luciferase gene. This virus is fully infectious and can undergo multiple cycles of replication in cell culture. In addition, the luciferous reporter provides a simple and easy method for quantitating the extent of virus growth and consequently, the antiviral activity of test compounds. The plasmid pNLRLuc contains the proviral NL-Rluc DNA cloned into pUC18 at the Pvull site. The NL-RLuc virus was prepared by transfection of 293T cells with the plasmid pNLRLuc. Transfections were performed using the LipofectAMINE PLUS kit from Invitrogen (Carlsbad, Calif.) according to the manufacturer and the virus generated was titered in MT-2 cells. For susceptibility analyses, the titrated virus was used to infect MT-2 cells in the presence of compound, and after 5 days of incubation, cells were processed and quantitated for virus growth by the amount of expressed luciferase. Assay media was RPMI 1640 supplemented with 10% heat inactivated fetal bovine serum (FBS), 100 units/ml penicillin G/100 units/ml streptomycin, 10 mM HEPES buffer pH 7.55 and 2 mM L-glutamine. The results from at least 2 experiments were used to calculate the EC50 values. Luciferase was quantitated using the Dual Luciferase kit from Promega (Madison, Wis.). Susceptibility of viruses to compounds was determined by incubation in the presence of serial dilutions of the compound. The 50% effective concentration (EC50) was calculated by using the exponential form of the median effect equation where (Fa)=1/[1+(ED50/drug conc.)^m] (Johnson V A, Byington R T. Infectivity Assay. In Techniques in HIV Research. ed. Aldovini A, Walker BD. 71-76. New York: Stockton Press.1990). Activity equal to A refers to a compound having an EC50<100 nM, while B and C denote compounds having an EC50 between 100 nM and 1 uM (B) or >1 uM (C).

This is an account of results in US20180147196A1, “PYRIDIN-3-YL ACETIC ACID DERIVATIVES AS INHIBITORS OF HUMAN IMMUNODEFICIENCY VIRUS REPLICATION” (priority 2015, published 2018).

Like-named read-outs stand apart in the source and are kept apart here.

Consider `Cc1nc(C)c([C@H](OC(C)(C)C)C(=O)O)c(N2CCC(C)(C)CC2)c1C1=CC(CCOc2ccc(F)cc2)C1` (stereo partly drawn) [Example 25, (2S)-2-(tert-Butoxy)-2-(4-(4,4-dimethylpiperidin-1-yl)-5-(3-(2-(4-fluorophenoxy)ethyl)cyclobut-1-en-1-yl)-2,6-dimethylpyridin-3-yl)acetic acid], for which the EC50 (read-out: Activity) is less than 0.1 µM.
On to `Cc1nc(C)c([C@H](OC(C)(C)C)C(=O)O)c(N2CCC(C)(C)CC2)c1/C=C/Cc1ccccc1` [Example 9, (S,E)-2-(tert-Butoxy)-2-(4-(4,4-dimethylpiperidin-1-yl)-2,6-dimethyl-5-(3-phenylprop-1-en-1-yl)pyridin-3-yl)acetic acid], for which the EC50 reads like this: (read-out: Activity) 0.1 to 1 µM; (read-out: EC50 μM) 0.281 µM.
Turning to `Cc1nc(C)c([C@H](OC(C)(C)C)C(=O)O)c(N2CCC(C)(C)CC2)c1C#N` [Example 24, (S)-2-(tert-Butoxy)-2-(5-cyano-4-(4,4-dimethylpiperidin-1-yl)-2,6-dimethylpyridin-3-yl)acetic acid], the EC50 (read-out: Activity) lay in the range of 0.1 to 1 µM.
On the same count and under the same terms, the value for `C=Cc1c(C)nc(C)c([C@H](OC(C)(C)C)C(=O)O)c1N1CCC(C)(C)CC1` [Example 28, (S)-2-(tert-Butoxy)-2-(4-(4,4-dimethylpiperidin-1-yl)-2,6-dimethyl-5-vinylpyridin-3-yl)acetic acid] was 0.1 to 1 µM.
The same measure, in the same setting: the value for `Cc1nc(C)c([C@H](OC(C)(C)C)C(=O)O)c(N2CCC(C)(C)CC2)c1Br` [Example 13, (S)-2-(5-Bromo-4-(4,4-dimethylpiperidin-1-yl)-2,6-dimethylpyridin-3-yl)-2-(tert-butoxy)acetic acid] was 0.1 to 1 µM.
The same measure, in the same setting: to `Cc1nc(C)c([C@H](OC(C)(C)C)C(=O)O)c(N2CCC(C)(C)CC2)c1CCCc1ccccc1` [Example 10, (S)-2-(tert-Butoxy)-2-(4-(4,4-dimethylpiperidin-1-yl)-2,6-dimethyl-5-(3-phenylpropyl)pyridin-3-yl)acetic acid] belongs 0.1 to 1 µM; to `C/C=C/c1c(C)nc(C)c([C@H](OC(C)(C)C)C(=O)O)c1N1CCC(C)(C)CC1` [Example 30, (S,E)-2-(tert-Butoxy)-2-(4-(4,4-dimethylpiperidin-1-yl)-2,6-dimethyl-5-(prop-1-en-1-yl)pyridin-3-yl)acetic acid], 0.1 to 1 µM.
Turning to `CCc1c(C)nc(C)c([C@H](OC(C)(C)C)C(=O)O)c1N1CCC(C)(C)CC1` [Example 29, (S)-2-(tert-Butoxy)-2-(4-(4,4-dimethylpiperidin-1-yl)-5-ethyl-2,6-dimethylpyridin-3-yl)acetic acid], the EC50 is less than 0.1 µM (read-out: Activity) and 0.068 µM (read-out: EC50 μM).
